Assay results taken from article PMC6025150, “Synthesis, enzyme inhibitory kinetics mechanism and computational study of N-(4-methoxyphenethyl)-N-(substituted)-4-methylbenzenesulfonamides as novel therapeutic agents for Alzheimer’s disease” (PeerJ, 2018).
Converted amounts (≈) assume the structure as drawn. “And” between values parts separate entries of the source, which are not always exact repeats. Equal entries are not always repeated.

The compounds below were run against T1, acetylcholinesterase (from human erythrocytes) (Homo sapiens, UniProt P22303) (assay: biochemical). Conditions: Conc: 0.0306373 (unit not given); Raw Data of IC50 sheet.
T1 construct: acetylcholinesterase (from human erythrocytes, purchased from Sigma-Aldrich, Seoul, Korea); purchased Sigma-Aldrich, Seoul, Korea; host or cells: human erythrocytes (natural source)
T1 sequence (P22303 32-617 isoform P22303-2 limits assumed): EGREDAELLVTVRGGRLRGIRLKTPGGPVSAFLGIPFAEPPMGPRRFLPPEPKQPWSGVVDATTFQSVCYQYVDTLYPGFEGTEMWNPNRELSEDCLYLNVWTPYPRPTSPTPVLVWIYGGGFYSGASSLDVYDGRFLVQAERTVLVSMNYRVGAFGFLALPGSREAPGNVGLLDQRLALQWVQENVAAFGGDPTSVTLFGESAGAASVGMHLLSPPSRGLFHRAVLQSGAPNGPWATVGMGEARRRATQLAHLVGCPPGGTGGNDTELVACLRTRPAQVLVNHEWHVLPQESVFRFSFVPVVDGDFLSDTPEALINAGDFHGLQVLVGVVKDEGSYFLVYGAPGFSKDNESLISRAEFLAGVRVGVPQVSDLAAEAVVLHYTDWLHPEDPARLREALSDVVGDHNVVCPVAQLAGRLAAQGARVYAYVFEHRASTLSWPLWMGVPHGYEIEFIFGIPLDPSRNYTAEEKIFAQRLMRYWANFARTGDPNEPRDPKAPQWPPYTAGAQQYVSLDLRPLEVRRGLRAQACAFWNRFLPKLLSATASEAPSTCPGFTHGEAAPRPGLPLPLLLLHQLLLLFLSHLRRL
Design: LogIC50 (best-fit value): unit not given here
Description: The inhibitory activities of synthesized compounds were determined spectrophotometrically using acetylthiocholine iodide as substrate by following the method of ([Ellman et al., 1961]). Briefly, The assay solution consisted of 180 µL of 50 mM Tris-HCl buffer, pH 7.7, containing (0.1 M sodium chloride and 0.02 M magnesium chloride) and 20 µL of enzyme (AChE, EC 3.1.1.7), acetylcholinesterase (from human erythrocytes, purchased from Sigma-Aldrich, Seoul, Korea) solution (50 U per well); increasing concentrations of test compounds (10 µL) were added to the assay solution and pre incubated for 30 min at 4 °C. After that 5,5′ Dithiobis (2 nitrobenzoic acid) (0.3 mM, 20 µL) and acetylthiocholine iodide (1.8 mM, 20 µL) were added to the reaction mixture and incubated at 37 °C for 10 min, followed by the measurement of absorbance at 412 nm. For non-enzymatic reaction, the assays were carried out with a blank containing all components except acetylcholinesterase. The assay measurements were measured at 412 nm using a micro plate reader (OPTI Max Tunable; Molecular Devices, Sunnyvale, CA, USA) having a wave-length range from 340–850 nm; for 96 well plates. The reaction rates were compared and percent inhibition was calculated due to the presence of tested inhibitors. […] Each concentration was analyzed in three independent experiments run in triplicate. The IC50 values were calculated by nonlinear regression using GraphPad Prism 5.0.
The % of Inhibition of Acetylcholinesterase was calculated as following: Inhibition%=B−S∕B×100. Here, the B and S are the absorbance’s for the blank and samples.

Row | Structure (SMILES) | inhibition, single experiment
1 | COc1ccc(CCN(CCCc2ccccc2)S(=O)(=O)c2ccc(C)cc2)cc1 [Compound 5g, N-(4-Methoxyphenethyl)-4-methyl-N-(3-phenyl-1-propyl) benzensulfonamide] | 16.111 and 16.8631

Same assay, conditions: Conc: 0.0306373 (unit not given); mean of three; Raw Data of IC50 sheet

Row | Structure (SMILES) | inhibition (Mean)
2 | COc1ccc(CCN(CCCc2ccccc2)S(=O)(=O)c2ccc(C)cc2)cc1 [Compound 5g, N-(4-Methoxyphenethyl)-4-methyl-N-(3-phenyl-1-propyl) benzensulfonamide] | 16.1834

Same assay, conditions: Conc: 0.0612745 (unit not given); Raw Data of IC50 sheet

Row | Structure (SMILES) | inhibition, single experiment
3 | COc1ccc(CCN(CCCc2ccccc2)S(=O)(=O)c2ccc(C)cc2)cc1 [Compound 5g, N-(4-Methoxyphenethyl)-4-methyl-N-(3-phenyl-1-propyl) benzensulfonamide] | 30.2326 and 29.5369

Same assay, conditions: Conc: 0.0612745 (unit not given); mean of three; Raw Data of IC50 sheet

Row | Structure (SMILES) | inhibition (Mean)
4 | COc1ccc(CCN(CCCc2ccccc2)S(=O)(=O)c2ccc(C)cc2)cc1 [Compound 5g, N-(4-Methoxyphenethyl)-4-methyl-N-(3-phenyl-1-propyl) benzensulfonamide] | 29.6527

Same assay, conditions: Conc: 0.122549 (unit not given); Raw Data of IC50 sheet

Row | Structure (SMILES) | inhibition, single experiment
5 | COc1ccc(CCN(CCCc2ccccc2)S(=O)(=O)c2ccc(C)cc2)cc1 [Compound 5g, N-(4-Methoxyphenethyl)-4-methyl-N-(3-phenyl-1-propyl) benzensulfonamide] | 32.9175 and 33.3333

Same assay, conditions: Conc: 0.122549 (unit not given); mean of three; Raw Data of IC50 sheet

Row | Structure (SMILES) | inhibition (Mean)
6 | COc1ccc(CCN(CCCc2ccccc2)S(=O)(=O)c2ccc(C)cc2)cc1 [Compound 5g, N-(4-Methoxyphenethyl)-4-methyl-N-(3-phenyl-1-propyl) benzensulfonamide] | 32.8451

Same assay, conditions: Conc: 0.245098 (unit not given); Raw Data of IC50 sheet

Row | Structure (SMILES) | inhibition, single experiment
7 | COc1ccc(CCN(CCCc2ccccc2)S(=O)(=O)c2ccc(C)cc2)cc1 [Compound 5g, N-(4-Methoxyphenethyl)-4-methyl-N-(3-phenyl-1-propyl) benzensulfonamide] | 43.5555 and 42.1199

Same assay, conditions: Conc: 0.245098 (unit not given); mean of three; Raw Data of IC50 sheet

Row | Structure (SMILES) | inhibition (Mean)
8 | COc1ccc(CCN(CCCc2ccccc2)S(=O)(=O)c2ccc(C)cc2)cc1 [Compound 5g, N-(4-Methoxyphenethyl)-4-methyl-N-(3-phenyl-1-propyl) benzensulfonamide] | 42.7571

Same assay, conditions: Conc: 0.490196 (unit not given); Raw Data of IC50 sheet

Row | Structure (SMILES) | inhibition, single experiment
9 | COc1ccc(CCN(CCCc2ccccc2)S(=O)(=O)c2ccc(C)cc2)cc1 [Compound 5g, N-(4-Methoxyphenethyl)-4-methyl-N-(3-phenyl-1-propyl) benzensulfonamide] | 49.3413 and 49.9987

Same assay, conditions: Conc: 0.490196 (unit not given); mean of three; Raw Data of IC50 sheet

Row | Structure (SMILES) | inhibition (Mean)
10 | COc1ccc(CCN(CCCc2ccccc2)S(=O)(=O)c2ccc(C)cc2)cc1 [Compound 5g, N-(4-Methoxyphenethyl)-4-methyl-N-(3-phenyl-1-propyl) benzensulfonamide] | 49.6905

Same assay, conditions: Conc: 0.980392 (unit not given); Raw Data of IC50 sheet

Row | Structure (SMILES) | inhibition, single experiment
11 | COc1ccc(CCN(CCCc2ccccc2)S(=O)(=O)c2ccc(C)cc2)cc1 [Compound 5g, N-(4-Methoxyphenethyl)-4-methyl-N-(3-phenyl-1-propyl) benzensulfonamide] | 59.3325 and 58.7749

Same assay, conditions: Conc: 0.980392 (unit not given); mean of three; Raw Data of IC50 sheet

Row | Structure (SMILES) | inhibition (Mean)
12 | COc1ccc(CCN(CCCc2ccccc2)S(=O)(=O)c2ccc(C)cc2)cc1 [Compound 5g, N-(4-Methoxyphenethyl)-4-methyl-N-(3-phenyl-1-propyl) benzensulfonamide] | 59.2851

Same assay, conditions: Conc: 1.96078 (unit not given); Raw Data of IC50 sheet

Row | Structure (SMILES) | inhibition, single experiment
13 | COc1ccc(CCN(CCCc2ccccc2)S(=O)(=O)c2ccc(C)cc2)cc1 [Compound 5g, N-(4-Methoxyphenethyl)-4-methyl-N-(3-phenyl-1-propyl) benzensulfonamide] | 66.9964 and 65.1126

Same assay, conditions: Conc: 1.96078 (unit not given); mean of three; Raw Data of IC50 sheet

Row | Structure (SMILES) | inhibition (Mean)
14 | COc1ccc(CCN(CCCc2ccccc2)S(=O)(=O)c2ccc(C)cc2)cc1 [Compound 5g, N-(4-Methoxyphenethyl)-4-methyl-N-(3-phenyl-1-propyl) benzensulfonamide] | 66.1998

Same assay, conditions: Conc: 3.92157 (unit not given); Raw Data of IC50 sheet

Row | Structure (SMILES) | inhibition, single experiment
15 | COc1ccc(CCN(CCCc2ccccc2)S(=O)(=O)c2ccc(C)cc2)cc1 [Compound 5g, N-(4-Methoxyphenethyl)-4-methyl-N-(3-phenyl-1-propyl) benzensulfonamide] | 74.8965 and 74.0186

Same assay, conditions: Conc: 3.92157 (unit not given); mean of three; Raw Data of IC50 sheet

Row | Structure (SMILES) | inhibition (Mean)
16 | COc1ccc(CCN(CCCc2ccccc2)S(=O)(=O)c2ccc(C)cc2)cc1 [Compound 5g, N-(4-Methoxyphenethyl)-4-methyl-N-(3-phenyl-1-propyl) benzensulfonamide] | 74.3992

Same assay, conditions: Concentration 0.0306373 (unit not given); IC50 Raw Data sheet

Row | Structure (SMILES) | % inhibition
17 | COc1ccc(CCN(CCCc2ccccc2)S(=O)(=O)c2ccc(C)cc2)cc1 [Compound 5g, N-(4-Methoxyphenethyl)-4-methyl-N-(3-phenyl-1-propyl) benzensulfonamide] | 15.576%

Same assay, conditions: Concentration 0.0612745 (unit not given); IC50 Raw Data sheet

Row | Structure (SMILES) | % inhibition
18 | COc1ccc(CCN(CCCc2ccccc2)S(=O)(=O)c2ccc(C)cc2)cc1 [Compound 5g, N-(4-Methoxyphenethyl)-4-methyl-N-(3-phenyl-1-propyl) benzensulfonamide] | 32.2845%

Same assay, conditions: Concentration 0.122549 (unit not given); IC50 Raw Data sheet

Row | Structure (SMILES) | % inhibition
19 | COc1ccc(CCN(CCCc2ccccc2)S(=O)(=O)c2ccc(C)cc2)cc1 [Compound 5g, N-(4-Methoxyphenethyl)-4-methyl-N-(3-phenyl-1-propyl) benzensulfonamide] | 29.1886%

Same assay, conditions: Concentration 0.245098 (unit not given); IC50 Raw Data sheet

Row | Structure (SMILES) | % inhibition
20 | COc1ccc(CCN(CCCc2ccccc2)S(=O)(=O)c2ccc(C)cc2)cc1 [Compound 5g, N-(4-Methoxyphenethyl)-4-methyl-N-(3-phenyl-1-propyl) benzensulfonamide] | 42.5959%

Same assay, conditions: Concentration 0.490196 (unit not given); IC50 Raw Data sheet

Row | Structure (SMILES) | % inhibition
21 | COc1ccc(CCN(CCCc2ccccc2)S(=O)(=O)c2ccc(C)cc2)cc1 [Compound 5g, N-(4-Methoxyphenethyl)-4-methyl-N-(3-phenyl-1-propyl) benzensulfonamide] | 49.7315%

Same assay, conditions: Concentration 0.980392 (unit not given); IC50 Raw Data sheet

Row | Structure (SMILES) | % inhibition
22 | COc1ccc(CCN(CCCc2ccccc2)S(=O)(=O)c2ccc(C)cc2)cc1 [Compound 5g, N-(4-Methoxyphenethyl)-4-methyl-N-(3-phenyl-1-propyl) benzensulfonamide] | 59.7479%

Same assay, conditions: Concentration 1.96078 (unit not given); IC50 Raw Data sheet

Row | Structure (SMILES) | % inhibition
23 | COc1ccc(CCN(CCCc2ccccc2)S(=O)(=O)c2ccc(C)cc2)cc1 [Compound 5g, N-(4-Methoxyphenethyl)-4-methyl-N-(3-phenyl-1-propyl) benzensulfonamide] | 66.4906%

Same assay, conditions: Concentration 3.92157 (unit not given); IC50 Raw Data sheet

Row | Structure (SMILES) | % inhibition
24 | COc1ccc(CCN(CCCc2ccccc2)S(=O)(=O)c2ccc(C)cc2)cc1 [Compound 5g, N-(4-Methoxyphenethyl)-4-methyl-N-(3-phenyl-1-propyl) benzensulfonamide] | 74.2824%

Same assay, conditions: each of three independent experiments; Raw Data of IC50 sheet

Row | Structure (SMILES) | IC50, single experiment
25 | COc1ccc(CCN(CCCc2ccccc2)S(=O)(=O)c2ccc(C)cc2)cc1 [Compound 5g, N-(4-Methoxyphenethyl)-4-methyl-N-(3-phenyl-1-propyl) benzensulfonamide] | 0.3267 µg/mL and 0.3464 µg/mL and 0.341 µg/mL

Same assay, conditions: from human erythrocytes; mean ± SEM; read-out: Acetylcholinesterase IC50 ± SEM

Row | Structure (SMILES) | IC50
26 | COc1ccc(CCN(CCCc2ccccc2)S(=O)(=O)c2ccc(C)cc2)cc1 [Compound 5g, N-(4-Methoxyphenethyl)-4-methyl-N-(3-phenyl-1-propyl) benzensulfonamide] | 0.798 ± 0.0138 µM

Same assay, conditions: log(inhibitor) vs. response fit, single run; IC50 Raw Data sheet

Row | Structure (SMILES) | LogIC50 (best-fit value)
27 | COc1ccc(CCN(CCCc2ccccc2)S(=O)(=O)c2ccc(C)cc2)cc1 [Compound 5g, N-(4-Methoxyphenethyl)-4-methyl-N-(3-phenyl-1-propyl) benzensulfonamide] | -0.4313

Same assay, conditions: log(inhibitor) vs. response fit, single run; unit not given; IC50 Raw Data sheet

Row | Structure (SMILES) | IC50 (best-fit value)
28 | COc1ccc(CCN(CCCc2ccccc2)S(=O)(=O)c2ccc(C)cc2)cc1 [Compound 5g, N-(4-Methoxyphenethyl)-4-methyl-N-(3-phenyl-1-propyl) benzensulfonamide] | 0.3704

Same assay, conditions: mean converted to uM; Raw Data of IC50 sheet; read-out: IC50

Row | Structure (SMILES) | IC50
29 | COc1ccc(CCN(CCCc2ccccc2)S(=O)(=O)c2ccc(C)cc2)cc1 [Compound 5g, N-(4-Methoxyphenethyl)-4-methyl-N-(3-phenyl-1-propyl) benzensulfonamide] | 0.798 µM

Same assay, conditions: mean of three experiments; Raw Data of IC50 sheet

Row | Structure (SMILES) | IC50 (Mean)
30 | COc1ccc(CCN(CCCc2ccccc2)S(=O)(=O)c2ccc(C)cc2)cc1 [Compound 5g, N-(4-Methoxyphenethyl)-4-methyl-N-(3-phenyl-1-propyl) benzensulfonamide] | 0.338 µg/mL (≈ 0.798 µM)
